Data: ChEMBL document CHEMBL1909046, “DrugMatrix in vitro pharmacology data”

Columns and labels:
Calcitonin receptor = molecular target: T1, Calcitonin receptor (Homo sapiens, UniProt P30988); assay type: cell membranes, Membrane; conditions: t47d
T1 sequence (P30988 whole entry): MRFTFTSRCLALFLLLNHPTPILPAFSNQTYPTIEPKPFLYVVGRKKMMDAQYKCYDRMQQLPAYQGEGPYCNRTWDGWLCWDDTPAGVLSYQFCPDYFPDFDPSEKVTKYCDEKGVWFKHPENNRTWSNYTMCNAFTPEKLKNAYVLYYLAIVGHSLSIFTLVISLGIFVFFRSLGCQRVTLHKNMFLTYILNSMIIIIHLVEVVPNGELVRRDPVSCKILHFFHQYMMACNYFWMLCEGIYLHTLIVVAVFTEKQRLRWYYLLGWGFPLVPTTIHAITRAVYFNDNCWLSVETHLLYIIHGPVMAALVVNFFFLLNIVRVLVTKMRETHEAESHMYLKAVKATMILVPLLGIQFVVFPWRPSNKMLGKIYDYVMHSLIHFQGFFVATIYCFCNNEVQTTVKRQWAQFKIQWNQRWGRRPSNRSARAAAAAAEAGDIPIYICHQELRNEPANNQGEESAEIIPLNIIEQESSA

[1] = molecular target: Matrix metalloproteinase-9 (Homo sapiens, UniProt P14780); assay type: cell-based;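 note: inhibition of isolated MMP-9 enzyme activity toward a synthetic peptide substrate, from the DrugMatrix protease screening panel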
Chain of Matrix metalloproteinase-9 (P14780 whole entry): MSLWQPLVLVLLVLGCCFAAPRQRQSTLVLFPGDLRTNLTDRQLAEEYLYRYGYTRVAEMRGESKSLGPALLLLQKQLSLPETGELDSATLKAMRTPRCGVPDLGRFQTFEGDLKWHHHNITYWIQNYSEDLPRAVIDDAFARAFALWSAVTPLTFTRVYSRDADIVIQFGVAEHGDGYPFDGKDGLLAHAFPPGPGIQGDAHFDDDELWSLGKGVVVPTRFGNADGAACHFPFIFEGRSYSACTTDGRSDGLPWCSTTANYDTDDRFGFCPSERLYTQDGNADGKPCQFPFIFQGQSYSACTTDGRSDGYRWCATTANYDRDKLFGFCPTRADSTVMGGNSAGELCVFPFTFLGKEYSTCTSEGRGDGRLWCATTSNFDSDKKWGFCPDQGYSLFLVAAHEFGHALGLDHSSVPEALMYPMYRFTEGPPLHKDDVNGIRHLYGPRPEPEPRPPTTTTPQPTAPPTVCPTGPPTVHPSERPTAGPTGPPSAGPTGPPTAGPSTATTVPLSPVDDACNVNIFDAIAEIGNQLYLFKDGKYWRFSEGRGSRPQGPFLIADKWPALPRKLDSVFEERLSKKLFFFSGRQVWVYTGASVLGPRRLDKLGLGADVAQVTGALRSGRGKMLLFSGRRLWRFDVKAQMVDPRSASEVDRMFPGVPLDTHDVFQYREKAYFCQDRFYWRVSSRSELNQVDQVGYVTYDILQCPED

Caspase-1 = molecular target: T2, Caspase-1 (Homo sapiens, UniProt P29466); parameters: species or system Escherichia coli;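 note: Caspase-1 enzyme inhibition assay with a peptide substrate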
T2 sequence (P29466 whole entry): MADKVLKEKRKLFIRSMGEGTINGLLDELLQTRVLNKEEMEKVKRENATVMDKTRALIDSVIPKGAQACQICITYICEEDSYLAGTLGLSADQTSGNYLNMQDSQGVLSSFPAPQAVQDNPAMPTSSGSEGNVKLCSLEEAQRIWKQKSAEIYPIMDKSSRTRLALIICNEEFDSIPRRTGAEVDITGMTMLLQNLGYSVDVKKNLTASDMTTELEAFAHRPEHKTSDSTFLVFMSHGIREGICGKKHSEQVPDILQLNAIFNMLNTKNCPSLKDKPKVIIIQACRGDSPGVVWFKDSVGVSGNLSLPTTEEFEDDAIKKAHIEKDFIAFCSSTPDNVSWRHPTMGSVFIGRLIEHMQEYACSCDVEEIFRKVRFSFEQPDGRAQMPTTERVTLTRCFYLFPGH

[2] = molecular target: T3, Muscarinic acetylcholine receptor M4 (Homo sapiens, UniProt P08173); assay type: cell membranes, CHO-K1, Membrane
T3 sequence (P08173 whole entry): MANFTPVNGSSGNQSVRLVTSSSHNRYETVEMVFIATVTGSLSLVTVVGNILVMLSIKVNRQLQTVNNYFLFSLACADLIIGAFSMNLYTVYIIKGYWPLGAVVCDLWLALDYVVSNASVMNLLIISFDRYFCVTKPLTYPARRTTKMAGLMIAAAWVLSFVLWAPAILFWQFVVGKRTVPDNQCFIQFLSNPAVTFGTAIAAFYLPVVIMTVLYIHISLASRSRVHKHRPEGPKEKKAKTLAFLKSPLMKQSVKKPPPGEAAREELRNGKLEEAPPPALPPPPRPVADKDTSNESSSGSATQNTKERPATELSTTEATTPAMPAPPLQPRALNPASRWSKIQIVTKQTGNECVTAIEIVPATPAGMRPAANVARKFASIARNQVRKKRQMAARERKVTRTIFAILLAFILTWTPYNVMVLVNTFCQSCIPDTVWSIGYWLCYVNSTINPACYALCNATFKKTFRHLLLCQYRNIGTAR

Leukotriene C4 synthase = molecular target: T4, Leukotriene C4 synthase (Cavia porcellus, UniProt A6XA80); assay type: tissue-based, Lung;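 note: enzyme inhibition assay of leukotriene C4 synthase, using LTA4 as the substrate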
T4 sequence (A6XA80 whole entry): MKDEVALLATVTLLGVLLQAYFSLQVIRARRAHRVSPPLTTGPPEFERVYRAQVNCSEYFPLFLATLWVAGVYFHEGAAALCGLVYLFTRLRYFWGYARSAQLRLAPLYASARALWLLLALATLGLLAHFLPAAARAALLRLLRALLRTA

Melanocortin receptor 5 = Melanocortin receptor 5 (Homo sapiens, UniProt P33032); assay type: cell membranes, HEK293, Membrane; conditions: hek293
Chain of Melanocortin receptor 5 (P33032 whole entry): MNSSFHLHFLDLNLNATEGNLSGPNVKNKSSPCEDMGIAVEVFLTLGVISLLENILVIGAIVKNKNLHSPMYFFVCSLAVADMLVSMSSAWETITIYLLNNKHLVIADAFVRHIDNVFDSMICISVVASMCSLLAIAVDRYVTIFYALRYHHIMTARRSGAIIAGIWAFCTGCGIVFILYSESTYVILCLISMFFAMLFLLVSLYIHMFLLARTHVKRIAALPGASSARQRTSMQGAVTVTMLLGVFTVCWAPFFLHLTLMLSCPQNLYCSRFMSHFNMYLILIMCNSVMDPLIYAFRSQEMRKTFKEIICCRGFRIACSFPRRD

[3] = molecular target: Tyrosine-protein kinase Fyn (Homo sapiens, UniProt P06241); test: biochemical; assay type: cell-based, Insect cells;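 note: enzymatic inhibition of Fyn kinase activity measured with Poly(Glu:Tyr) as the phosphorylation substrate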
Chain of Tyrosine-protein kinase Fyn (P06241 whole entry): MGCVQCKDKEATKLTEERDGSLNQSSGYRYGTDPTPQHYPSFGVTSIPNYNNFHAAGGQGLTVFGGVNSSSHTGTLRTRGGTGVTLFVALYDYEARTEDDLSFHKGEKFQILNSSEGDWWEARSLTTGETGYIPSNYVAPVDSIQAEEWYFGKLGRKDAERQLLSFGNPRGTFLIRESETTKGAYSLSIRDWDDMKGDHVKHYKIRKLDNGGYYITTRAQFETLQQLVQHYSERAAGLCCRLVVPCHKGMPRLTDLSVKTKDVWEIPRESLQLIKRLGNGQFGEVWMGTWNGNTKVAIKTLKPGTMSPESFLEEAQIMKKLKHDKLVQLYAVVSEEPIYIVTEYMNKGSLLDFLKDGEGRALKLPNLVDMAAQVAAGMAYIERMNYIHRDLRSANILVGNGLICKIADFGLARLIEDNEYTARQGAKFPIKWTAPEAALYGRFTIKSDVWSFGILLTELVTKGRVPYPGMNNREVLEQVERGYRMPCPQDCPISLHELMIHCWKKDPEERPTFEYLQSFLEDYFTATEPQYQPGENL
Note: in other assays of this panel Not Active means under 50% inhibition at 10 µM.

SMILES | IC50 (Calcitonin receptor) | IC50 [1] | IC50 (Caspase-1) | IC50 ([2]; cho-k1) | IC50 (Leukotriene C4 synthase) | IC50 (Melanocortin receptor 5) | IC50 ([3]; insect cells) | IC50 ([3]; read-out: IC50) [nM] | IC50 ([2]; read-out: IC50) [nM] | Ki ([2]; read-out: Ki) [nM]
CCOc1nc2cccc(C(=O)O)c2n1Cc1ccc(-c2ccccc2-c2nnn[nH]2)cc1 | Not Active | Not Active | Not Active | Not Active | Not Active | Not Active | Not Active | – | – | –
O=C(O)CCCc1cccs1 | Not Active | Not Active | Not Active | Not Active | Not Active | Not Active | Not Active | – | – | –
COc1ccccc1N | Not Active | Not Active | Not Active | Not Active | Not Active | Not Active | Not Active | – | – | –
O=C(c1ccccc1F)N1CCC(Cc2ccccc2)CC1 | Not Active | Not Active | Not Active | Not Active | Not Active | Not Active | Not Active | – | – | –
Cc1c(O)cccc1C(=O)N[C@@H](CSc1ccccc1)[C@H](O)CN1C[C@H]2CCCC[C@H]2C[C@H]1C(=O)NC(C)(C)C | Not Active | Not Active | Not Active | Not Active | Not Active | Not Active | – | 7970 | – | –
CC(O)COC[C@H]1O[C@@H]2O[C@H]3[C@H](O)[C@@H](O)[C@@H](O[C@H]4[C@H](O)[C@@H](O)[C@@H](O[C@H]5[C@H](O)[C@@H](O)[C@@H](O[C@H]6[C@H](O)[C@@H](O)[C@@H](O[C@H]7[C@H](O)[C@@H](O)[C@@H](O[C@H]8[C@H](O)[C@@H](O)[C@@H](O[C@H]1[C@H](O)[C@H]2O)O[C@@H]8COCC(C)O)O[C@@H]7COCC(C)O)O[C@@H]6COCC(C)O)O[C@@H]5COCC(C)O)O[C@@H]4COCC(C)O)O[C@@H]3COCC(C)O (stereo partly drawn) [2-HYDROXYPROPYL-BETA-CYCLODEXTRIN] | Not Active | Not Active | Not Active | Not Active | Not Active | Not Active | – | 3040 | – | –
NC(=O)c1cccc(N)c1 [3-AMINOBENZAMIDE] | Not Active | Not Active | Not Active | Not Active | Not Active | Not Active | Not Active | – | – | –
C[C@H]1O[C@H](O[C@H]2[C@H](O)[C@@H](O)[C@@H](O[C@H]3[C@H](O)[C@@H](O)C(O)O[C@@H]3CO)O[C@@H]2CO)[C@H](O)[C@@H](O)[C@@H]1N[C@H]1C=C(CO)[C@@H](O)[C@H](O)[C@H]1O (some centres not stated) [ACARBOSE] | Not Active | Not Active | Not Active | Not Active | Not Active | Not Active | Not Active | – | – | –
CC[C@H]1[C@@H]2C[C@H]3[C@@H]4N(C)c5ccccc5[C@]45C[C@@H]([C@@H]2[C@H]5O)N3[C@@H]1O [AJMALINE] | Not Active | Not Active | Not Active | Not Active | Not Active | Not Active | Not Active | – | – | –
NC12CC3CC(CC(C3)C1)C2 [AMANTADINE] | Not Active | Not Active | Not Active | Not Active | Not Active | Not Active | Not Active | – | – | –
NCCCNCCSP(=O)(O)O [AMIFOSTINE] | Not Active | Not Active | Not Active | Not Active | Not Active | Not Active | Not Active | – | – | –
CN(C)CCC=C1c2ccccc2CCc2ccccc21 [AMITRIPTYLINE] | Not Active | Not Active | Not Active | – | Not Active | Not Active | Not Active | – | 5.3 | 0.739
CC(=O)Oc1ccccc1C(=O)O [ASPIRIN] | Not Active | Not Active | Not Active | Not Active | Not Active | Not Active | Not Active | – | – | –
